Laboratory results from patent publication EP4703354A1, “COMPOUND AS CCR6 ANTAGONIST, AND PHARMACEUTICAL COMPOSITION AND USE THEREOF” (Wuhan Createrna Science and Technology Co.,Ltd., priority 2023, dated 2024).
Where two headings read alike, the source gives them in different places.

How the values were obtained:
[1] = in vivo pharmacokinetic study in SD rats; settings: rat; for bioavailability: 1 mg/kg PO vs 1 mg/kg IV, read-out: Oral bioavailability F (%); for AUC(0-t) / Cmax / half-life: 1 mg/kg
Outline: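 Male SD rats (180-200 g), 3 per route: single fasted oral gavage in 1% Tween 80 or tail-vein IV bolus in 50% PEG400. Orbital blood into EDTA-K2 sampled to 8 h; plasma analysed and PK parameters derived by non-compartmental analysis.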

[2] = in vitro liver microsome metabolic stability, human; format: in vitro ADME; settings: Human liver microsomes, 37°C
Procedure: (§1) Preparation of working solutions for test compounds and standards: An appropriate amount of the compound was accurately weighed and dissolved in a corresponding volume of suitable solvent to prepare 1 mM stock solutions of the test compounds and standards. The stock solutions were then diluted with appropriate solvent to obtain 100 µM working solutions of the test compounds, ensuring that the DMSO content in the working solutions remained below 10%.
(§2) The internal standard compound testosterone (or tolbutamide) and its corresponding solvent, internal standard concentration (200 ng/mL), were selected based on the properties of the test compound.
(§3) • Solution A: 0.1 mol/L K2HPO4 (2.28 g K2HPO4·3H2O was dissolved in 100 mL of double-distilled water); • Solution B: 0.1 mol/L KH2PO4 (1.36 g KH2PO4 was dissolved in 100 mL of double-distilled water); • 80.2 mL of Solution A and 19.8 mL of Solution B were mixed thoroughly, and the pH was adjusted to 7.4.
(§4) 37.5 mg of glycine was weighed, dissolved in 100 mL of ultrapure water, and adjusted to pH 8.0 with NaOH.
(§5) 1.25 mg of glucose-6-phosphate dehydrogenase (400 U/mg) was weighed (the specific amount weighed was calculated based on the activity of the purchased glucose-6-phosphate dehydrogenase), dissolved in 1 mL of glycine buffer to a concentration of 500 U/mL, aliquoted into 20 µL per tube, and stored at -20°C for future use.
(§6) 7.83 mg of NADP, 0.06 mL of D-glucose-6-phosphate (260 mg/mL), and 10.17 mg of MgCl2·6H2O were precisely weighed.
(§7) The mixture was dissolved in 1 mL of pure water. The cofactor ratio composition: NADP 10 mM, D-glucose-6-phosphate 60 mM, MgCl2·6H2O 50 mM.
(§8) The reaction system (taking a 500 µL system as an example) was composed of the following solution ratios: 416.5 µL phosphate buffer, 5 µL compound working solution, 25 µL liver microsomes, 3.5 µL glucose-6-phosphate dehydrogenase, and 50 µL cofactor solution. The total incubation volume could be adjusted according to experimental requirements.
(§9) 416.5 µL of phosphate buffer was taken, 25 µL of liver microsomes, 3.5 µL of glucose-6-phosphate dehydrogenase, and 50 µL of cofactor solution were added, vortexed twice to mix, and preincubated in a 37°C water bath for 5 minutes. Then, 5 µL of the test compound working solution was added, vortexed twice to mix, each time for 2-3 seconds, and placed in a 37°C water bath to initiate the reaction, with two parallel samples set. At 0.5 min, 1 min, 2 min, 5 min, 15 min, and 30 min after the reaction, 50 µL of the mixture was taken and added to centrifuge tubes containing 200 µL of 0°C pre-cooled internal standard working solution to terminate the reaction, vortexed for 1 minute to mix, and centrifuged at 13,000 rpm for 10 minutes in a 4°C pre-cooled high-speed centrifuge. The supernatant was collected for analysis. After the compound was added and vortex-mixed, 50 µL of the mixture was rapidly transferred to a centrifuge tube containing 200 µL of a pre-cooled (0°C) internal standard working solution to terminate the reaction, vortex-mixed for 1 minute, and used as the relative zero-point sample (relative to the standard group). The sample was then placed into a 37°C water bath to initiate the reaction, and timing was started.
(§10) The sample analysis of the test compound was performed using the liquid chromatography-tandem mass spectrometry (LCMS/MS) method. The semi-quantitative determination was performed using the ratio of the analyte peak area to the internal standard peak area. The retention times of the analyte and internal standard, chromatogram acquisition, and chromatogram integration were processed using Analyst software.
(§11) The in vitro elimination rate constant k of the test compound and the control compound was determined by converting the ratio of the peak area of the test compound to the internal standard into the remaining rate, and T1/2 was then calculated according to the following formula. T1/2 = (Ln2)/(k) = (0.693)/(k) [formula] Table 3. […]

[3] = in vitro liver microsome metabolic stability, rat; format: in vitro ADME; settings: Rat liver microsomes, 37°C
Procedure: as §1, §2, §3, §4, §5, §6, §7, §8, §9, §10, §11

[4] = in vitro liver microsome metabolic stability, beagle dog; format: in vitro ADME; settings: Beagle dog liver microsomes, 37°C
Procedure: as §1, §2, §3, §4, §5, §6, §7, §8, §9, §10, §11

Structure (SMILES) | Liver microsome T1-2 (min) Human [2] [min] | Liver microsome T1-2 (min) Rat [3] [min] | Liver microsome T1-2 (min) Beagle dog [4] [min] | other results
Cc1cccnc1[C@H](Nc1c(Nc2ccnc(C(=O)N(C)C)c2O)c(=O)c1=O)[C@]1(C)CC(F)(F)CO1 (single isomer, unassigned) [128B] | 158.82 | 216.24 | 222.45 | bioavailability ([1]; male, plasma): 36.7%; AUC(0-t) ([1]; male, plasma, IV): 910 ng·h/mL; Cmax ([1]; male, plasma, IV): 3270 ng/mL; AUC(0-t) ([1]; male, plasma, PO): 334 ng·h/mL; Cmax ([1]; male, plasma, PO): 182 ng/mL
Cc1cccnc1C(Nc1c(Nc2ccc(Cl)c(C(=O)N(C)C)c2O)c(=O)c1=O)C1(C)CC(F)(F)CO1 (centres unmarked) [compound 080, 6-chloro-3-((2-(((4,4-difluoro-2-methyltetrahydrofuran-2-yl)(3-methylpyridin-2-yl)methyl)amino)-3,4-dioxocyclobut-1-en-1-yl)amino)-2-hydroxy-N, N-dimethylbenzamide] | 539.06 | 109.92 | 1205.26 | 
Cc1cccnc1[C@H](Nc1c(Nc2ccc(Cl)c(C(=O)N(C)C)c2O)c(=O)c1=O)C1(C)CC(F)CO1 (stereo partly drawn) [compound 081, 6-chloro-3-((2-(((1S)-(4-fluoro-2-methyltetrahydrofuran-2-yl)(3-methylpyridin-2-yl)methyl)amino)-3,4-dioxocyclobut-l-en-1-yl)amino)-2-hydroxy-N,N-dimethylbenzamide] | 713.96 | 403.32 | 669.81 | 
Cc1cccnc1[C@H](Nc1c(Nc2ccnc(C(=O)N(C)C)c2O)c(=O)c1=O)C1(C)CCCO1 (stereo partly drawn) [compound 082, 3-hydroxy-N,N-dimethyl-4-((2-(((1S)-(3-methylpyridin-2-yl)(2-methyltetrahydrofuran-2-yl)methyl)amino)-3,4-dioxocyclobut-1-en-1-yl)amino)picolinamide] | 261.96 | 290.01 | 275.16 | 
Cc1cccnc1C(Nc1c(Nc2ccc(Cl)c(C(=O)N(C)C)c2O)c(=O)c1=O)C1(C)CCOC1 (centres unmarked) [compound 083, 6-chloro-2-hydroxy-N,N-dimethyl-3-((2-(((3-methylpyridin-2-yl)(3-methyltetrahydrofuran-3-yl)methyl)amino)-3,4-dioxocyclobut-1-en-1-yl)amino)benzamide] | 412.77 | 290.38 | 741.46 | 
Cc1cccnc1[C@H](Nc1c(Nc2ccc(Cl)c(C(=O)N(C)C)c2O)c(=O)c1=O)C1(C)CC(F)(F)C1 [compound 088, (R)-6-chloro-3-((2-(((3,3-difluoro-1-methylcyclobutyl)(3-methylpyridin-2-yl)methyl)amino)-3,4-dioxocyclobut-l-en-1-yl)amino)-2-hydroxy-N,N-dimethylbenzamide] | 423.69 | 39.67 | 753.15 | 
Cc1cccnc1[C@H](Nc1c(Nc2ccc(F)c(C(=O)N(C)C)c2O)c(=O)c1=O)C1(C)CC(F)(F)C1 [compound 089, (R)-3-((2-(((3,3-difluoro-1-methylcyclobutyl)(3-methylpyridin-2-yl)methyl)amino)-3,4-dioxocyclobut-1-en-1-yl)amino)-6-fluoro-2-hydroxy-N,N-dimethylbenzamide] | 331.10 | 88.93 | 258.52 | bioavailability ([1]; male, plasma): 21.1%; AUC(0-t) ([1]; male, plasma, IV): 772 ng·h/mL; Cmax ([1]; male, plasma, IV): 4300 ng/mL; AUC(0-t) ([1]; male, plasma, PO): 163 ng·h/mL; Cmax ([1]; male, plasma, PO): 96.4 ng/mL; half-life ([1]; male, plasma, PO): 157 min
Cc1nccnc1[C@H](Nc1c(Nc2ccc(F)c(C(=O)N(C)C(C)C)c2O)c(=O)c1=O)C1(C)CCCC1 [compound 090, (R)-6-fluoro-2-hydroxy-N-isopropyl-N-methyl-3-((2-(((1-methylcyclopentyl)(3-methylpyrazin-2-yl)methyl)amino)-3,4-dioxocyclobut-1-en-1-yl)amino)benzamide] | 209.60 | 50.16 | 355.30 | 
Cc1nccnc1[C@H](Nc1c(Nc2ccnc(C(=O)N(C)C)c2O)c(=O)c1=O)C1(C)CCCC1 [compound 091, (R)-3-hydroxy-N,N-dimethyl-4-((2-(((1-methylcyclopentyl)(3-methylpyrazin-2-yl)methyl)amino)-3,4-dioxocyclobut-1-en-1-yl)amino)picolinamide] | 717.09 | 72.62 | 338.24 | 
CN(C)C(=O)c1nccc(Nc2c(N[C@@H](c3nc(C(F)F)ccc3F)C3(C)CC(F)(F)CO3)c(=O)c2=O)c1O (stereo partly drawn) [compound 097, 4-((2-(((1S)-(4,4-difluoro-2-methyltetrahydrofuran-2-yl)(6-(difluoromethyl)-3-fluoropyridin-2-yl)methyl)amino)-3,4-dioxocyclobut-1-en-1-yl)amino)-3-hydroxy-N,N-dimethylpicolinamide] | 724.74 | 230.78 | 209.62 | 
CN(C)C(=O)c1nccc(Nc2c(NC(c3nc(C(F)(F)F)ccc3F)C3(C)CC(F)(F)CO3)c(=O)c2=O)c1O (centres unmarked) [compound 098] | 208.30 | 195.59 | 102.59 | bioavailability ([1]; in vivo): 21.6%; AUC(0-t) ([1]; in vivo, IV): 630 ng·h/mL; Cmax ([1]; in vivo, IV): 2740 ng/mL; AUC(0-t) ([1]; in vivo, PO): 136 ng·h/mL; Cmax ([1]; in vivo, PO): 102 ng/mL; half-life ([1]; in vivo, PO): 164 min
